Data set [1] is described as follows: Visual/microscopic observation of matrix films for drug crystals after preparation and on storage (physical stability). The data set is classed as physicochemical. Particulars: for Drug crystals in dried matrix: Example 5; for Drug crystals in adhesive matrix/laminate: Example 6, DURO-TAK 2852 with propylene glycol/isopropyl myristate, 10% ketorolac on free acid basis, visual and microscopic. The procedure: As used herein, “physical stability” of a drug in a matrix patch includes the lack of recrystallization of the drug in the dried adhesive layer of the patch.
Pressure sensitive adhesive matrix systems described herein were prepared as follows. First, the solids content of a water-based or solvent-based adhesive in liquid form was determined by placing a known weight of liquid in a weighed aluminum dish and evaporating the solvents overnight in a 70° C. convection oven. The content of solid adhesive in the liquid was calculated by dividing the adhesive solid weight after drying by the initial total liquid weight. In some cases, the polyisobutylene (PIB) adhesives were prepared from polyisobutylene solids. The solid PIB was first dissolved in heptane to achieve a final solid content of about 30% by weight, and then the exact solid content was determined as described above. Next, a weighed quantity of adhesive liquid was added to a glass bottle, and the solid adhesive weight was calculated from the known solid fraction of the given adhesive liquid. The drug substance (hydrophilic salt or free drug form) was weighed and added to the adhesive solution in a quantity necessary to achieve a selected dry matrix film composition. The liquid containing the adhesive polymer drug substance was then mixed overnight. […] After mixing, approximately 8 ml of the solution was dispensed on a silanized polyester release liner and film cast using a casting knife with a gap size appropriate to achieve a final dried thickness of approximately 0.05-0.1 mm. The cast was dried in a 70° C. convection oven for 15-30 minutes to yield a dried matrix onto which an 0.08 mm thick polyethylene backing film was laminated. These matrix systems were then used to conduct in vitro skin flux experiments as described below. […]
The systems manufactured with the salt and the water-based adhesive dispersions were stored at room temperature and examined using optical microscopy at 100× magnification for the presence of drug crystals.

The nature of data set [2]: Dissolution of drug substance in liquid adhesive or solvent during matrix preparation. The data set is classed as physicochemical. As to conditions: for Dissolution in organic solvent system: TSR, equivalent to 1% (w/w) tromethamine salt; for Dissolution in enhancer-acrylic adhesive solution: Example 6, DURO-TAK 2852 with propylene glycol/isopropyl myristate, 10% ketorolac on free acid basis. On the procedure: Pressure sensitive adhesive matrix systems described herein were prepared as follows. First, the solids content of a water-based or solvent-based adhesive in liquid form was determined by placing a known weight of liquid in a weighed aluminum dish and evaporating the solvents overnight in a 70° C. convection oven. The content of solid adhesive in the liquid was calculated by dividing the adhesive solid weight after drying by the initial total liquid weight. In some cases, the polyisobutylene (PIB) adhesives were prepared from polyisobutylene solids. […] Next, a weighed quantity of adhesive liquid was added to a glass bottle, and the solid adhesive weight was calculated from the known solid fraction of the given adhesive liquid. The drug substance (hydrophilic salt or free drug form) was weighed and added to the adhesive solution in a quantity necessary to achieve a selected dry matrix film composition. The liquid containing the adhesive polymer drug substance was then mixed overnight. […] The cast was dried in a 70° C. convection oven for 15-30 minutes to yield a dried matrix onto which an 0.08 mm thick polyethylene backing film was laminated. These matrix systems were then used to conduct in vitro skin flux experiments as described below.

Data set [3] is described as follows: In vitro skin flux, modified Franz non-jacketed diffusion cells. The data set is classed as in vitro ADME, human. Particulars: Example 6, DURO-TAK 2852 patch; for Average cumulative amount of ketorolac released after 24 hours / In vitro skin flux of ketorolac: 10% ketorolac on free acid basis, 8% enhancer (propylene glycol/isopropyl myristate); for In vitro skin flux of ketorolac: Mean±SD, n=2/10 skins/diffusion cells.
Description: In vitro skin flux studies were conducted using human cadaver epidermal membrane in modified Franz non-jacketed diffusion cells. […] This method involves the exposure of the fullthickness skin to water at 60° C. for 60 seconds. After this period, the epidermal membrane was gently peeled from the dermis and stored in aluminum foil at −5 ° C. Prior to skin permeation experiments, the silanized release liner was removed from the adhesive matrix system, and the adhesive was affixed to the stratum corneum side of the thawed epidermal membrane, which was then cut to an appropriate size and placed between the two halves of the diffusion cell with the stratum corneum facing the donor compartment.
The receiver compartment was filled with water or an aqueous buffer appropriate to maintain sink conditions for the drug. All receiver media included 0.02% (w/w) sodium azide to inhibit bacterial growth. The diffusion cell was placed in a temperature controlled circulating water bath calibrated to maintain the surface temperature of the skin at 32° C. The receiver compartment was constantly stirred by a magnetic stir bar in the receiver compartment agitated by a magnetic stirring module placed under the water bath. At predetermined sampling intervals, the entire contents of the receiver compartment were collected for drug quantitation, and the receiver compartment was filled with fresh receiver solution, taking care to eliminate any air bubbles at the skin/solution interface.
The cumulative amount of drug permeated per unit area at any time t (Qt, μg/cm^2) was determined according to the following equation: [formula]
where Ct (μg/cm^3) is the concentration of the receiver compartment at sample time t (hours), V is the volume of the receiver compartment of the diffusion cell (6.3 cm^3), and A is the diffusional area of the cell (0.64 cm^2).

The conditions of data set [4]: disclosed in U.S. Pat. No. 5,589,498 (Example 2); cited from earlier work.
Setting [5] is: TSR, equivalent to 1% (w/w) tromethamine salt.

For `O=C(c1ccccc1)c1ccc2n1CCC2C(=O)O` (centres unmarked) [Ketorolac free acid, ketorolac], in data set [1] (setting [5]), the “Drug crystals in dried matrix” value is reported as “visually free of any crystals”. Further, the “Drug crystals in adhesive matrix/laminate” value in data set [1] is “visibly homogeneous and free from crystals”. In data set [2] (Example 5), the “Dissolution in organic solvent system” value is “completely dissolved”. The “Dissolution in enhancer-acrylic adhesive solution” value in data set [2] is given as “formed a homogeneous solution”. In addition, in data set [3], the “Average cumulative amount of ketorolac released after 24 hours” value is 583.3±94.6 μg/cm^2 and the “In vitro skin flux of ketorolac” value worked out at 25.4±4.2 μg/cm^2/h. Further, in data set [4], the “24 hour cumulative release” value is on record as 461.7±83.8 and the Flux is on record as 21.6±3.6 μg/cm^2/h.

Regarding `O=C(c1ccccc1)c1ccc2n1CCC2C(=O)O` (centres unmarked) [ketorolac tromethamine], the “Drug crystals in dried matrix” value in data set [1] (NACOR 72-9965, 1% (w/w)) is “free of drug crystals”; in data set [1] (setting [5]) it was “contained crystallized drug”. The “Drug crystals in adhesive matrix/laminate” value in data set [1] was “visibly cloudy and extensive crystals were visible”. Moreover, the “Dissolution in water/emulsion system” value in data set [2] (Example 5, NACOR 72-9965, 1% (w/w)) is recorded as “dissolved completely”. For the same compound, the “Dissolution in organic solvent system” value in data set [2] (Example 5) is “did not completely dissolve”. Also, the “Dissolution in enhancer-acrylic adhesive solution” value in data set [2] is on record as “does not dissolve”. Also, in data set [3], the “Average cumulative amount of ketorolac released after 24 hours” value came out at 171.6±49.0 μg/cm^2. Further, in data set [3], the “In vitro skin flux of ketorolac” value was found to be 7.5±2.2 μg/cm^2/h. For the same compound, the “Ketorolac flux as % of the flux observed with the system prepared with the free acid” value in data set [3] (14.9% ketorolac tromethamine) worked out at 30%.
